Experimental data reported in patent publication US20120202794A1 (priority 2011, published 2012).

Columns and labels:
[1] = Cell cytotoxicity assay (MTS), CC90 as reported in Table 1, cell line not stated; assay type: cell-based; conditions: human; cell line not given
How it was run: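 MTS read-out (490 nm, 2 h dye step) after 8-day exposure at 37° C. Huh7, HepG2, BxPC3 were seeded at 2×10^3 and CEM at 5×10^3 cells/well, with compound serially diluted from 100 μM. CC90 comes from comparison with untreated control wells.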

HCV Replicon 1b = experiment: HCV inhibition assay, HCV replicon 1b (Clone A or ET-lunet cells; RT-PCR or luciferase reporter); assay type: cell-based; conditions: Hepatitis C virus, 96 h, HCV replicon 1b; 4 days incubation; read-out: Replicon 1b potency EC90
How it was run: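 Inhibition read either as luciferase signal (ET replicon) or as HCV 5′-NTR RNA by RT-PCR relative to rRNA, % = (1−2^−ΔΔCt)×100, against DMSO controls, giving EC50 and EC90. Cells: Clone A or ET-lunet, seeded 1500 or 3000/well, exposed 4 days at 37 °C, 5% CO2, 0.5% DMSO.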

| Compound | CC90 at 8 days [1] | EC90 (HCV Replicon 1b) |
| --- | --- | --- |
| CC(C)C[C@H]1C(=O)N[C@@H](C2CCCCC2)CN1Cc1cc(-c2ccc(Cl)cc2)on1 [Compound 211, (3S,6S)-4-((5-(4-chlorophenyl)isoxazol-3-yl)methyl)-6-cyclohexyl-3-isobutylpiperazin-2-one] | > 10 µM | 0.41 µM |
| CC(C)C[C@H]1C(=O)N[C@@H](C2CCCC2)CN1Cc1cc(-c2ccc(Cl)cc2)on1 [Compound 212, (3S,6S)-4-((5-(4-chlorophenyl)isoxazol-3-yl)methyl)-6-cyclopentyl-3-isobutylpiperazin-2-one] | > 10 µM | 0.26 µM |
| CCC(C)[C@H]1CN(Cc2cc(-c3ccc(F)cc3)on2)[C@@H](CC(C)C)C(=O)N1 (stereo partly drawn) [Compound 214] | > 10 µM | 0.72 µM |
| CC(C)C[C@H]1C(=O)N[C@@H](c2ccccc2)CN1Cc1cc(-c2ccc(F)cc2)on1 [Compound 215, (3S,6S)-4-((5-(4-fluorophenyl)isoxazol-3-yl)methyl)-3-isobutyl-6-phenylpiperazin-2-one] | > 10 µM | 0.19 µM |
| CC(C)C[C@H]1C(=O)N[C@@H](C2CC2)CN1Cc1cc(-c2ccc(F)cc2)on1 [Compound 216, (3S,6S)-6-cyclopropyl-4-((5-(4-fluorophenyl)isoxazol-3-yl)methyl)-3-isobutylpiperazin-2-one] | > 10 µM | 1.6 µM |
| CSC[C@H]1CN(Cc2cc(-c3ccc(F)cc3)on2)[C@@H](CC(C)C)C(=O)N1 [Compound 217, (3S,6R)-4-[5-(4-Fluoro-phenyl)-isoxazol-3-ylmethyl]-3-isobutyl-6-methylsulfanylmethyl-piperazin-2-one] | > 10 µM | 0.82 µM |
| CSC[C@H]1CN(Cc2cc(-c3ccc(Cl)cc3)on2)[C@@H](CC(C)C)C(=O)N1 [Compound 218, (3S,6R)-4-((5-(4-chlorophenyl)isoxazol-3-yl)methyl)-3-isobutyl-6-((methylthio)methyl)piperazin-2-one] | > 10 µM | 0.75 µM |
| CC(C)C[C@H]1C(=O)N[C@@H](c2ccccc2)CN1Cc1cc(-c2ccc(Cl)cc2)on1 [Compound 219, (3S,6S)-4-((5-(4-chlorophenyl)isoxazol-3-yl)methyl)-3-isobutyl-6-phenylpiperazin-2-one] | > 10 µM | 4.5 µM |
| CC(C)C[C@H]1CN(Cc2ccc(F)cc2C(F)(F)F)[C@@H](CC(C)C)C(=O)N1 [Compound 220, (3S,6S)-4-(4-fluoro-2-(trifluoromethyl)benzyl)-3,6-diisobutylpiperazin-2-one] | > 10 µM | 8.35 µM |
| CC(C)C[C@H]1CN(Cc2ccc(F)c(C(F)(F)F)c2)[C@@H](CC(C)C)C(=O)N1 [Compound 221, (3S,6S)-4-(4-fluoro-3-(trifluoromethyl)benzyl)-3,6-diisobutylpiperazin-2-one] | > 10 µM | > 10 µM |
| CC(C)C[C@H]1CN(Cc2cc(F)ccc2F)[C@@H](CC(C)C)C(=O)N1 [Compound 222, (3S,6S)-4-(2,5-difluorobenzyl)-3,6-diisobutylpiperazin-2-one] | > 10 µM | 9.7 µM |
| CC(C)C[C@H]1CN(Cc2cc(C(F)(F)F)cc(C(F)(F)F)c2)[C@@H](CC(C)C)C(=O)N1 [Compound 223, (3S,6S)-4-(3,5-Bis-trifluoromethyl-benzyl)-3,6-diisobutyl-piperazin-2-one] | > 10 µM | 4.49 µM |
| CC(C)C[C@H]1CN(Cc2c(F)cccc2F)[C@@H](CC(C)C)C(=O)N1 [Compound 224, (3S,6S)-4-(2,6-Difluoro-benzyl)-3,6-diisobutyl-piperazin-2-one] | > 10 µM | 8.36 µM |
| CCc1ccc(CN2C[C@H](CC(C)C)NC(=O)[C@@H]2CC(C)C)cc1 [Compound 225, (3S,6S)-4-(4-Ethyl-benzyl)-3,6-diisobutyl-piperazin-2-one] | > 10 µM | 3.51 µM |
| CC(C)C[C@H]1CN(Cc2ccc(Cl)c(Cl)c2)[C@@H](CC(C)C)C(=O)N1 [Compound 226, (3S,6S)-4-(3,4-Dichloro-benzyl)-3,6-diisobutyl-piperazin-2-one] | > 10 µM | 8.87 µM |
| CC(C)C[C@H]1CN(Cc2ccc(F)c(Cl)c2)[C@@H](CC(C)C)C(=O)N1 [Compound 227, (3S,6S)-4-(3-Chloro-4-fluoro-benzyl)-3,6-diisobutyl-piperazin-2-one] | > 10 µM | > 10 µM |
| CC(C)C[C@H]1CN(Cc2ccc(OC(F)(F)F)cc2)[C@@H](CC(C)C)C(=O)N1 [Compound 228, (3S,6S)-3,6-Diisobutyl-4-(4-trifluoromethoxy-benzyl)-piperazin-2-one] | > 10 µM | 3.26 µM |

| Compound | CC90 at 8 days [1] | EC90 (HCV Replicon 1b) |
| --- | --- | --- |
| CC(C)C[C@H]1CN(Cc2cc(C(F)(F)F)ccc2Cl)[C@@H](CC(C)C)C(=O)N1 [Compound 229, (3S,6S)-4-(2-Chloro-5-trifluoromethyl-benzyl)-3,6-diisobutyl-piperazin-2-one] | > 10 µM | 5.12 µM |
| CCC[C@H]1CN(C(=O)[C@@H]2C[C@H]2c2ccccc2)[C@@H](CC(C)C)C(=O)N1 [Compound 230, (3S,6S)-3-isobutyl-4-((1R,2R)-2-phenylcyclopropanecarbonyl)-6-propylpiperazin-2-one] | > 10 µM | 0.57 µM |
| CC(C)C[C@H]1C(=O)N[C@@H](C2CCCCC2)CN1C(=O)[C@@H]1C[C@H]1c1ccccc1 [Compound 231, (3S,6S)-6-cyclohexyl-3-isobutyl-4-((1R,2R)-2-phenylcyclopropanecarbonyl)-piperazin-2-one] | > 10 µM | 0.93 µM |
| CC(C)C[C@H]1C(=O)N[C@@H](C2CCCC2)CN1C(=O)[C@@H]1C[C@H]1c1ccccc1 [Compound 232, (3S,6S)-6-cyclopentyl-3-isobutyl-4-((1R,2R)-2-phenylcyclopropanecarbonyl)-piperazin-2-one] | > 10 µM | 0.69 µM |
| CC(C)C[C@H]1C(=O)N[C@@H](C(C)C)CN1C(=O)[C@@H]1C[C@H]1c1ccccc1 [Compound 233, (3S,6S)-3-isobutyl-6-isopropyl-4-((1R,2R)-2-phenylcyclopropanecarbonyl)piperazin-2-one] | > 10 µM | 0.93 µM |
| CC(C)C[C@H]1C(=O)N[C@@H](c2ccccc2)CN1C(=O)[C@@H]1C[C@H]1c1ccccc1 [Compound 234, (3S,6S)-3-isobutyl-6-phenyl-4-((1R,2R)-2-phenylcyclopropanecarbonyl)piperazin-2-one] | > 10 µM | 0.3 µM |
| CC(C)C[C@H]1C(=O)N[C@@H](C2CC2)CN1C(=O)[C@@H]1C[C@H]1c1ccccc1 [Compound 235, (3S,6S)-6-cyclopropyl-3-isobutyl-4-((1R,2R)-2-phenylcyclopropanecarbonyl)-piperazin-2-one] | > 10 µM | 4.2 µM |
| CC(C)C[C@H]1CN(C(=O)[C@@H]2C[C@H]2c2ccc(F)cc2)[C@@H](CC(C)C)C(=O)N1 [Compound 236, (3S,6S)-4-[(1R,2R)-2-(4-Fluoro-phenyl)-cyclopropanecarbonyl]-3,6-diisobutyl-piperazin-2-one] | > 10 µM | 0.08 µM |
| CC(C)C[C@H]1CN(C(=O)[C@@H]2C[C@H]2c2ccc(Cl)cc2)[C@@H](CC(C)C)C(=O)N1 [Compound 237, (3S,6S)-4-[(1R,2R)-2-(4-Chloro-phenyl)-cyclopropanecarbonyl]-3,6-diisobutyl-piperazin-2-one] | > 10 µM | 0.27 µM |
| CC(C)C[C@H]1CN(C(=O)[C@@H]2C[C@H]2c2ccc(F)c(F)c2)[C@@H](CC(C)C)C(=O)N1 [Compound 238, (3S,6S)-4-[(1R,2R)-2-(3,4-Difluoro-phenyl)-cyclopropanecarbonyl]-3,6-diisobutyl-piperazin-2-one] | > 10 µM | 0.59 µM |
| COc1ccc([C@@H]2C[C@H]2C(=O)N2C[C@H](CC(C)C)NC(=O)[C@@H]2CC(C)C)cc1 [Compound 239, (3S,6S)-3,6-Diisobutyl-4-[(1R,2R)-2-(4-methoxy-phenyl)-cyclopropanecarbonyl]-piperazin-2-one] | > 10 µM | 0.96 µM |
| CCC[C@H]1CN(C(=O)[C@@H]2C[C@H]2c2ccc(F)cc2)[C@@H](CC(C)C)C(=O)N1 [Compound 240, (3S,6S)-4-[(1R,2R)-2-(4-Fluoro-phenyl)-cyclopropanecarbonyl]-3-isobutyl-6-propyl-piperazin-2-one] | > 10 µM | 0.1 µM |
| CC(C)C[C@H]1C(=O)N[C@@H](C2CCCCC2)CN1C(=O)[C@@H]1C[C@H]1c1ccc(F)cc1 [Compound 241, (3S,6S)-6-Cyclohexyl-4-[(1R,2R)-2-(4-fluoro-phenyl)-cyclopropanecarbonyl]-3-isobutyl-piperazin-2-one] | > 10 µM | 0.15 µM |
| CC(C)C[C@H]1C(=O)N[C@@H](C2CCCC2)CN1C(=O)[C@@H]1C[C@H]1c1ccc(F)cc1 [Compound 242, (3S,6S)-6-Cyclopentyl-4-[(1R,2R)-2-(4-fluoro-phenyl)-cyclopropanecarbonyl]-3-isobutyl-piperazin-2-one] | > 10 µM | 0.06 µM |
| CC(C)C[C@H]1C(=O)N[C@@H](CC2CC2)CN1C(=O)[C@@H]1C[C@H]1c1ccc(Cl)cc1 [Compound 243, (3S,6S)-4-[(1R,2R)-2-(4-Chloro-phenyl)-cyclopropanecarbonyl]-6-cyclopropylmethyl-3-isobutyl-piperazin-2-one] | > 10 µM | 0.43 µM |
| CCC[C@H]1CN(C(=O)[C@@H]2C[C@H]2c2ccc(Cl)cc2)[C@@H](CC(C)C)C(=O)N1 [Compound 244, (3S,6S)-4-[(1R,2R)-2-(4-Chloro-phenyl)-cyclopropanecarbonyl]-3-isobutyl-6-propyl-piperazin-2-one] | > 10 µM | 0.07 µM |
